According to publication PMC6017976, “Enzyme Kinetics and Molecular Docking Studies on Cytochrome 2B6, 2C19, 2E1, and 3A4 Activities by Sauchinone” (Molecules : A Journal of Synthetic Chemistry and Natural …, 2018):

Legend:
[1] = Drug interaction of sibutramine, clopidogrel, or chlorzoxazone with sauchinone in mice (plasma pharmacokinetics); conditions: for CL/F / Tmax / half-life / AUC: male, ICR, mouse, in vivo; for AUC: plasma, 1 mg/kg sibutramine, 10 mg/kg clopidogrel or 10 mg/kg chlorzoxazone
Description: For analysis of sibutramine, a mobile phase was made, consisting of 10 mM ammonium acetate adjusted to pH 4 with acetic acid: acetonitrile (94:6, v/v) and was eluted at 0.2 mL/min. […] Other parameters of mass spectrometers were the same as those used for analysis of metabolites of CYP substrates.
Male ICR mice (5 weeks old, weight of 20–25 g) were purchased from the Charles River Company Korea (Orient, Seoul, Korea). […] They were provided free access to food and water. These mice were allowed to acclimate to these conditions for three days prior to inclusion in the experiments.
Surgical procedures for mice were conducted under tiletamine HCl and zolazepam HCl anesthesia by intramuscular injection. The carotid artery (for blood sampling) cannulation was carried out using catheters (BASi, West Lafayette, IN, USA). Drug administration and blood sampling were performed at 5 h after surgery [55]. […] Other procedures were the same as those used for the sibutramine pharmacokinetic study.
AUC was calculated using the trapezoidal rule method. Standard methods [56] were used to calculate pharmacokinetic parameters using non-compartmental analysis (WinNonlin 2.1; Pharmasight Corp., Mountain View, CA, USA). Cmax and Tmax were read reversibly from extrapolated data.

CYP2C19 = target: T1, CYP2C19 (Homo sapiens, UniProt P33261); assay: Reversible inhibition (RI) of CYP2C19 activity in HLMs (cocktail probe assay); assay type: in vitro ADME; conditions: S-mephenytoin hydroxylation, 100 μM S-mephenytoin, 30 min incubation
T1 construct: pooled human liver microsomes from a mixed pool of 50 donors; tissue BD Gentest Co. 452156; host or cells: human liver microsomes, pool of 50 donors

[2] = mice, drug with sauchinone versus drug alone, decrease
[3] = mice, drug with sauchinone versus drug alone, increase

T1 sequence (P33261 whole entry): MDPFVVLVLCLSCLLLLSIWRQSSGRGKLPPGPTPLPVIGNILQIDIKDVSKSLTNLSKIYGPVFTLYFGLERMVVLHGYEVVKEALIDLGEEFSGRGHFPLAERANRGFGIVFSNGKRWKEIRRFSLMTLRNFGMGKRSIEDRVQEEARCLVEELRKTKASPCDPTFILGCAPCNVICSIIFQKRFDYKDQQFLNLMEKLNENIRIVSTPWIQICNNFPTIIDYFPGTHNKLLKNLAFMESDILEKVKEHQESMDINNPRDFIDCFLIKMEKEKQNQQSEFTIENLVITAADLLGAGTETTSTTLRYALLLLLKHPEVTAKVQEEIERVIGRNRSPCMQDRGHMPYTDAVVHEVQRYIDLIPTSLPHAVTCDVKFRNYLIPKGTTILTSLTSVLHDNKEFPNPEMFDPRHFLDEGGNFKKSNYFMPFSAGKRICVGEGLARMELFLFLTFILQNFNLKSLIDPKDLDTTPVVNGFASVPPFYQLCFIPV

Which CL/F [1] does the source give for CC(C)CC(N(C)C)C1(c2ccc(Cl)cc2)CCC1 (stereo not shown) [Sibutramine, sibutramine] here?
Its CL/F is 0.253 ± 0.0208 mL/min/kg.

And the Tmax [1]?
Its Tmax is 0.25 h.

What about the half-life [1] of the same molecule?
The half-life was 3.28 ± 0.598 h.

And the CL/F ([1]; po)?
Its CL/F is 0.205 ± 0.0186 mL/min/kg.

What about the Tmax ([1]; po) of the same molecule?
Its Tmax is 0.25 h.

What about the half-life ([1]; po) of the same molecule?
Its half-life is 2.75 ± 0.53 h.

What about the AUC ([1]; po, mice, with sauchinone (100 mg/kg oral, 30 min before)) of the same molecule?
The AUC was 82000 ng·h/mL.

What about the AUC ([1]; po, mice, without sauchinone (vehicle), oral administration per Table 3) of the same molecule?
Its AUC is 66300 ng·h/mL.

What about the “CL/F slower with sauchinone than drug alone (by %)” value [1, 2] of the same molecule?
Its value is 19.0%.

And the “t1/2 smaller with sauchinone than drug alone (by %)” value [1, 2]?
Its value is 16.2%.

What about the “AUC greater with sauchinone than drug alone (by %)” value [1, 3] of the same molecule?
The value was 23.6%.

What about the “Cmax higher with sauchinone than drug alone (by %)” value [1, 3] of the same molecule?
Its value is 41.5%.

With COc1ccc2[nH]c([S+]([O-])Cc3ncc(C)c(OC)c3C)nc2c1 (stereo not shown) [omeprazole, reference compound] as the molecule, how does the IC50 (CYP2C19) read?
The IC50 was 6.59 µM.
